{
  "source": "patent US8883844B2",
  "about": "“Nitric oxide releasing amino acid ester for treatment of pulmonary hypertension and other respiratory conditions” (Nitrogenix Inc., priority 2010, dated 2014)",
  "origin": "cited, not measured here",
  "key": {"[1]": {"details": "open pilot study"}, "[2]": {"details": "oral; 3, 6, 9 and 12 months"}},
  "note": "Like-named read-outs stand apart in the source and are kept apart here.",
  "data": [
    {"smiles": "COc1ccccc1Oc1c(NS(=O)(=O)c2ccc(C(C)(C)C)cc2)nc(-c2ncccn2)nc1OCCO", "note": "[bosentan]", "values": [
      {"measurement": "liver toxicity", "setting": "higher dose", "result": "liver toxicity occurred"},
      {"measurement": "six minute walk test", "setting": "two placebo controlled trials, whole group, improvement greater at higher doses", "result": "improved"}
    ]},
    {"smiles": "Cc1cc2c(cc1CC(=O)c1sccc1S(=O)(=O)Nc1onc(C)c1Cl)OCO2", "note": "[sitaxsentan]", "values": [
      {"measurement": "decrease in pulmonary vascular resistance", "setting": "[1]", "result": 30, "unit": "%"},
      {"measurement": "six minute walk test", "setting": "[1]", "result": "improvement"}
    ]},
    {"smiles": "CC#CCC(C)[C@H](O)/C=C/[C@@H]1[C@H]2c3cccc(CCCC(=O)O)c3O[C@H]2C[C@H]1O", "note": "(mixture of isomers) [Beraprost, beraprost]", "values": [
      {"measurement": "benefit in PAH", "setting": "[2]", "result": "benefit in a study in PAH at 3 and 6 months but not at 9 or 12 months"}
    ]}
  ]
}
